Values of other authors in patent US7666887B2, “Stable, neutral pH, VOC-free biocidal compositions of 1,2-benzisothiazolin-3-one” (ISP Investments, Inc., priority 2004, dated 2010).

Assays:
[1] = in some individuals

For O=c1[nH]sc2ccccc12 [BIT, 1,2-benzisothiazolin-3-one], the sensitization [1] is given as “can cause sensitization” and the aqueous solubility is given as “low”.
